Among the data in patent US10179782B2, “Substituted sulfonamide compounds” (Genentech, Inc., priority 2016, dated 2019) are IC50 values, retold here.

As a reminder, the IC50 is the midpoint of a concentration-inhibition curve.

For the assay, the target named is T1, human TRPA1 (Homo sapiens, UniProt O75762).
T1 construct: expressed in transfected cells; host or cells: CHO cells
The assay is described as follows: TRPA1 FLIPR Tetra calcium influx assay in CHO cells (block of cinnamaldehyde-induced calcium influx). Format: cell-based. Particulars: Table 2; CHO cells expressing TRPA1; agonist cinnamaldehyde 75 uM; 20 min compound incubation; Hill coefficient fixed to 1.5; read-out: hTRPA1 CHO Ca2+ AUC EVO (IC50). In a few lines:
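IC50s were derived from a Hill fit with n fixed at 1.5, using inhibition of FLIPR Tetra calcium signals in dye-loaded TRPA1-CHO cells. Cells sat with compound 20 min at room temperature in HBSS with 20 mM HEPES (pH 7.4) and 0.02% BSA, then were challenged with cinnamaldehyde near EC80: 75 µM human, 45 µM rat.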

T1 sequence (O75762 whole entry): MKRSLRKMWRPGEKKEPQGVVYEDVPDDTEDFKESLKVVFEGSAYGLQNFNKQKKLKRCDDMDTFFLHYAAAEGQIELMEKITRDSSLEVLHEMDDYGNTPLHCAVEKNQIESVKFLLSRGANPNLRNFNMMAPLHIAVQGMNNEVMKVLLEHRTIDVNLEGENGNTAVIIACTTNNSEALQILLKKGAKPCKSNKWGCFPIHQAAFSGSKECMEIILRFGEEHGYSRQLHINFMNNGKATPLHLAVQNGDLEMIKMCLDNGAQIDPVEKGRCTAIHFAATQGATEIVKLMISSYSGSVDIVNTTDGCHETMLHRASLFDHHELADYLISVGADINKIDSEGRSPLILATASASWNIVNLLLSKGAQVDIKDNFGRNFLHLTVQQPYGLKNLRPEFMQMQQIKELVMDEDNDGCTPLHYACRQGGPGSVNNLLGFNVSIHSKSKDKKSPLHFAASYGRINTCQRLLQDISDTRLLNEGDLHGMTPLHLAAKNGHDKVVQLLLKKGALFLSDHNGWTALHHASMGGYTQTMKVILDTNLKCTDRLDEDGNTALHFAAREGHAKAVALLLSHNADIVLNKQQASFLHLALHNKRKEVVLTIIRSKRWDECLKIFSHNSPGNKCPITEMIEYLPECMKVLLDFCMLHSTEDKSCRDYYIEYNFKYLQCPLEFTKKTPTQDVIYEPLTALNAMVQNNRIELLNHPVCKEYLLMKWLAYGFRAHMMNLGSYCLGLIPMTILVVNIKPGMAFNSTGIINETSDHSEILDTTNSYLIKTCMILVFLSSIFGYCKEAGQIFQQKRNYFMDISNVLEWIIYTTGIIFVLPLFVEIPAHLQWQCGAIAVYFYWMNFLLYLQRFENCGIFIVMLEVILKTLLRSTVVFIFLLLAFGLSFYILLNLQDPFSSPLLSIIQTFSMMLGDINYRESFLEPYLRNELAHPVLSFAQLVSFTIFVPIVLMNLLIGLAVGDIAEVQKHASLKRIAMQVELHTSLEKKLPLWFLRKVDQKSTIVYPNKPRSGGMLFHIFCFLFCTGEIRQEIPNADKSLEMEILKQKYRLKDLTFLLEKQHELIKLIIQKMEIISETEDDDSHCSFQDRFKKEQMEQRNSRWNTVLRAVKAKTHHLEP

For `O=C(NCc1cc(-c2cnc(C(F)(F)F)nc2)ncc1F)[C@@H]1[C@H]2C[C@H]2CN1S(=O)(=O)c1ccc(F)cc1` (single isomer, unassigned) [Example 68], the IC50 turned out to be 14.6 nM.
In the case of `C[C@H]1[C@H](F)C[C@@H](C(=O)NCc2cc(-c3cnc(C(F)(F)F)nc3)c(C(F)(F)F)cn2)N1S(=O)(=O)c1ccc(F)cc1` [Example 107, (2S,4R,5S)-4-fluoro-1-(4-fluorophenyl)sulfonyl-5-methyl-N-[[5-(trifluoromethyl)-4-[2-(trifluoromethyl)pyrimidin-5-yl]-2-pyridyl]methyl]pyrrolidine-2-carboxamide], the IC50 is 9.74 nM.
As to `C[C@H]1[C@H](F)C[C@@H](C(=O)NCc2cc(-c3cnc(C(F)(F)F)nc3)ncc2OC(F)F)N1S(=O)(=O)c1ccc(F)cc1` [Example 24, (2S,4R,5S)-N-((5-(difluoromethoxy)-2-(2-(trifluoromethyl)pyrimidin-5-yl)pyridin-4-yl)methyl)-4-fluoro-1-(4-fluorophenylsulfonyl)-5-methylpyrrolidine-2-carboxamide], the 50% inhibitory concentration (IC50) amounted to 19.3 nM.
With `C[C@H]1[C@H](F)C[C@@H](C(=O)NCc2cc(-c3ccc(C(F)(F)F)cc3)ncc2OC(F)(F)F)N1S(=O)(=O)c1ccc(F)cc1` [Example 139, (2S,4R,5S)-4-fluoro-1-(4-fluorophenyl)sulfonyl-5-methyl-N-[[5-(trifluoromethoxy)-2-[4-(trifluoromethyl)phenyl]-4-pyridyl]methyl]pyrrolidine-2-carboxamide], the IC50 amounted to 2.77 nM.
To `C[C@H]1[C@H](F)C[C@@H](C(=O)NCc2cc(-c3ccc(OC(F)F)nc3)ncc2C(F)(F)F)N1S(=O)(=O)c1ccc(F)cc1` [Example 114, (2S,4R,5S)—N-([2-[6-(difluoromethoxy)pyridin-3-yl]-5-(trifluoromethyl)pyridin-4-yl]methyl)-4-fluoro-1-[(4-fluorobenzene)sulfonyl]-5-methylpyrrolidine-2-carboxamide] belongs 3.57 nM; to `C[C@H]1[C@H](F)C[C@@H](C(=O)NCc2cc(-c3cnc(C(F)(F)F)s3)ncc2C#N)N1S(=O)(=O)c1ccc(F)cc1` [Example 129, (2S,4R,5S)—N-((5-cyano-2-(2-(trifluoromethyl)thiazol-5-yl)pyridin-4-yl)methyl)-4-fluoro-1-((4-fluorophenyl)sulfonyl)-5-methylpyrrolidine-2-carboxamide], 4.14 nM.
Regarding `C[C@H]1[C@H](F)C[C@@H](C(=O)NCc2cc(-c3cnc(C(F)(F)F)nc3)cc(F)c2F)N1S(=O)(=O)c1ccc(F)cc1` [Example 97, (2S,4R,5S)-N-[[2-1,3-difluoro-5-[2-(trifluoromethyl)pyrimidin-5-yl]phenyl]methyl]-4-fluoro-1-(4-fluorophenyl)sulfonyl-5-methyl-pyrrolidine-2-carboxamide], the IC50 was found to be 6.06 nM.
In the case of `O=C(NCc1cc(-c2cnc(C(F)(F)F)nc2)ncc1C(F)F)[C@@H]1[C@H]2C[C@H]2CN1S(=O)(=O)c1ccc(F)cc1` [Example 150, (1R,4S,5S)-N-[[5-(difluoromethyl)-2-[2-(trifluoromethyl)pyrimidin-5-yl]-4-pyridyl]methyl]-3-(4-fluorophenyl)sulfonyl-3-azabicyclo[3.1.0]hexane-4-carboxamide], the IC50 stood at 5.72 nM.
To `C[C@H]1[C@H](F)C[C@@H](C(=O)NCc2cc(-c3cnc(C(F)(F)F)nc3)ccc2C(F)(F)F)N1S(=O)(=O)c1ccc(F)cc1` [Example 111, (2S,4R,5S)-4-fluoro-1-(4-fluorophenyl)sulfonyl-5-methyl-N-[[2-(trifluoromethyl)-5-[2-(trifluoromethyl)pyrimidin-5-yl]phenyl]methyl]pyrrolidine-2-carboxamide] belongs 1.75 nM; to `C[C@H]1[C@H](F)C[C@@H](C(=O)NCc2cc(-c3cnc(C(F)(F)F)nc3)ncc2C(F)(F)F)N1S(=O)(=O)c1ccc(C#N)nc1` [Example 160, (2S,4R,5S)-1-[(6-cyano-3-pyridyl)sulfonyl]-4-fluoro-5-methyl-N-[[5-(trifluoromethyl)-2-[2-(trifluoromethyl)pyrimidin-5-yl]-4-pyridyl]methyl]pyrrolidine-2-carboxamide], 7.27 nM; to `C[C@H]1[C@H](F)C[C@@H](C(=O)NCc2cc(-c3cnc(C(F)(F)F)nc3)ncc2C(F)(F)F)N1S(=O)(=O)c1ccc(F)c(F)c1` [Example 119, (2S,4R,5S)-1-(3,4-difluorophenyl)sulfonyl-4-fluoro-5-methyl-N-[[5-(trifluoromethyl)-2-[2-(trifluoromethyl)pyrimidin-5-yl]-4-pyridyl]methyl]pyrrolidine-2-carboxamide], 0.836 nM.
To `O=C(NCc1cc(-c2ccc(S(F)(F)(F)(F)F)cc2)ncc1F)[C@@H]1C[C@@H](F)CN1S(=O)(=O)c1ccc(F)cc1` [Example 59, (2S,4R)-4-fluoro-N-[[5-fluoro-2-[4-(pentafluoro-sulfanyl)phenyl]-4-pyridyl]methyl]-1-(4-fluorophenyl)sulfonyl-pyrrolidine-2-carboxamide] belongs 161 nM; to `C[C@H]1[C@H](F)C[C@@H](C(=O)NCc2cc(-c3cnc(C(F)(F)F)nc3)ccc2C#N)N1S(=O)(=O)c1ccc(F)cc1` [Example 33, (2S,4R,5S)-N-([2-cyano-5-[2-(trifluoromethyl)pyrimidin-5-yl]phenyl]methyl)-4-fluoro-1-[(4-fluorobenzene)sulfonyl]-5-methylpyrrolidine-2-carboxamide], 3.58 nM.
In the case of `C[C@H]1[C@H](F)C[C@@H](C(=O)NCc2cc(-c3cnc(C(F)(F)F)nc3)cnc2C(F)F)N1S(=O)(=O)c1ccc(F)cc1` [Example 162, (2S,4R,5S)-N-[[2-(difluoromethyl)-5-[2-(trifluoromethyl)pyrimidin-5-yl]-3-pyridyl]methyl]-4-fluoro-1-(4-fluorophenyl)sulfonyl-5-methyl-pyrrolidine-2-carboxamide], the IC50 was 2.34 nM.
Consider `C[C@H]1[C@H](F)C[C@@H](C(=O)NCc2cc(-c3cnc(C(F)(F)F)nc3)nc(C3CC3)n2)N1S(=O)(=O)c1ccc(F)cc1` [Example 37, (2S,4R,5S)-N-([2-cyclopropyl-6-[2-(trifluoromethyl)pyrimidin-5-yl]pyrimidin-4-yl]methyl)-4-fluoro-1-[(4-fluorobenzene)sulfonyl]-5-methylpyrrolidine-2-carboxamide], for which the IC50 was found to be 5.4 nM.
Turning to `C[C@H]1[C@H](F)C[C@@H](C(=O)NCc2cc(-c3cnc(C(F)(F)F)s3)ncn2)N1S(=O)(=O)c1ccc(F)cc1` [Example 56, (2S,4R,5S)-4-fluoro-1-(4-fluorophenyl)sulfonyl-5-methyl-N-[[6-[2-(trifluoromethyl)thiazol-5-yl]pyrimidin-4-yl]methyl]pyrrolidine-2-carboxamide], the IC50 was 66.9 nM.
To `C[C@H]1[C@H](F)C[C@@H](C(=O)NCc2cc(-c3cnc(C(F)(F)F)nc3)ncn2)N1S(=O)(=O)c1ccc(F)cc1` [Example 8, (2S,4R,5S)-4-fluoro-1-(4-fluorophenyl)sulfonyl-5-methyl-N-[[6-[2-(trifluoromethyl)pyrimidin-5-yl]pyrimidin-4-yl]methyl]pyrrolidine-2-carboxamide] belongs 17.3 nM.
To `O=C(NCc1cc(-c2cnc(C(F)(F)F)nc2)ncn1)[C@H]1CC[C@@H](C(F)(F)F)N1S(=O)(=O)c1ccc(F)cc1` [Example 22, (2R,5S)-1-(4-fluorophenyl)sulfonyl-5-(trifluoromethyl)-N-[[6-[2-(trifluoromethyl)pyrimidin-5-yl]pyrimidin-4-yl]methyl]pyrrolidine-2-carboxamide] belongs 3610 nM; to `C[C@H]1[C@H](F)C[C@@H](C(=O)NCc2cc([C@H]3CC[C@@H](C(F)(F)F)CC3)c(F)cn2)N1S(=O)(=O)c1ccc(F)cc1` [Example 52, (2S,4R,5S)-4-fluoro-1-(4-fluorophenyl)sulfonyl-N-[[5-fluoro-4-[4-(trifluoromethyl)cyclohexyl]-2-pyridyl]methyl]-5-methyl-pyrrolidine-2-carboxamide], 8.9 nM; to `C[C@H]1[C@H](F)C[C@@H](C(=O)NCc2ccc(F)c(-c3cnc(C(F)(F)F)nc3)c2)N1S(=O)(=O)c1ccc(F)cc1` [Example 5, (2S,4R,5S)-4-fluoro-1-(4-fluorophenyl)sulfonyl-N-[[4-fluoro-3-[2-(trifluoromethyl)pyrimidin-5-yl]phenyl]methyl]-5-methyl-pyrrolidine-2-carboxamide], 3.77 nM.
To `C[C@H]1[C@H](F)C[C@@H](C(=O)NCc2cn(-c3cnc(C(F)(F)F)s3)nc2Cl)N1S(=O)(=O)c1ccc(F)cc1` [Example 148, (4R,5S)-N-[[3-chloro-1-[2-(trifluoromethyl)thiazol-5-yl]pyrazol-4-yl]methyl]-4-fluoro-1-(4-fluorophenyl)sulfonyl-5-methyl-pyrrolidine-2-carboxamide] belongs 7.64 nM.
Take `C[C@H]1CCC[C@@H](C(=O)NCc2cc(-c3cnc(C(F)(F)F)nc3)ncc2F)N1S(=O)(=O)c1ccc(F)cc1` [Example 58, (2S,6S)-1-(4-fluorophenyl)sulfonyl-N-[[5-fluoro-2-[2-(trifluoromethyl)pyrimidin-5-yl]-4-pyridyl]methyl]-6-methyl-piperidine-2-carboxamide]: the IC50 came out at 73.9 nM.
To `CC[C@H]1CC[C@@H](C(=O)NCc2cc(-c3cnc(C(F)(F)F)nc3)ncn2)N1S(=O)(=O)c1ccc(F)cc1` [Example 20, (2S,5S)-5-ethyl-1-(4-fluorophenyl)sulfonyl-N-[[6-[2-(trifluoromethyl)pyrimidin-5-yl]pyrimidin-4-yl]methyl]pyrrolidine-2-carboxamide] belongs 10.9 nM.
For the compound `C[C@H]1[C@H](F)C[C@@H](C(=O)NCc2cnc(C(F)(F)F)c(-c3cnc(C(F)(F)F)nc3)c2)N1S(=O)(=O)c1ccc(F)cc1` [Example 109, (2S,4R,5S)-4-fluoro-1-(4-fluorophenyl)sulfonyl-5-methyl-N-[[6-(trifluoromethyl)-5-[2-(trifluoromethyl)pyrimidin-5-yl]-3-pyridyl]methyl]pyrrolidine-2-carboxamide], the IC50 was 16.9 nM.
